Experimental findings from patent publication US7449465B2, “Triazolopyrimidine derivatives as glycogen synthase kinase 3 inhibitors” (Janssen Pharmaceutica, N.V., priority 2003, dated 2008) are described below.

Each structure is given as a SMILES string. Structures can show the parent of a compound that is named as a salt.

As usually defined, the melting point is the temperature, or range, at which the solid turns liquid.

GSK3alpha, sequence (P49840 whole entry, species assumed): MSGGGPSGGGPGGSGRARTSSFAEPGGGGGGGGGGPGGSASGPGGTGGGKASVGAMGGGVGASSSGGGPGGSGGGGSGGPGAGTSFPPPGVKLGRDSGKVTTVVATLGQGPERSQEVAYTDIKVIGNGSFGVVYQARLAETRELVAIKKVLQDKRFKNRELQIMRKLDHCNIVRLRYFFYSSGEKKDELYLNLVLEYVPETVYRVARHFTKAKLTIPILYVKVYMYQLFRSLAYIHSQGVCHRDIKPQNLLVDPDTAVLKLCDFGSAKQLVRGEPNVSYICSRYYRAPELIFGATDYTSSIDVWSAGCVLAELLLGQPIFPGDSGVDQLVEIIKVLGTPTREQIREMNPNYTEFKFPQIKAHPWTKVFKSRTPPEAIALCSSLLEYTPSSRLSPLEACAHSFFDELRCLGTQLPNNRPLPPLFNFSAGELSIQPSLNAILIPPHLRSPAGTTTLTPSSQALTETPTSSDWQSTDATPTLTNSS
GSK3β, sequence (P49841 whole entry, species assumed): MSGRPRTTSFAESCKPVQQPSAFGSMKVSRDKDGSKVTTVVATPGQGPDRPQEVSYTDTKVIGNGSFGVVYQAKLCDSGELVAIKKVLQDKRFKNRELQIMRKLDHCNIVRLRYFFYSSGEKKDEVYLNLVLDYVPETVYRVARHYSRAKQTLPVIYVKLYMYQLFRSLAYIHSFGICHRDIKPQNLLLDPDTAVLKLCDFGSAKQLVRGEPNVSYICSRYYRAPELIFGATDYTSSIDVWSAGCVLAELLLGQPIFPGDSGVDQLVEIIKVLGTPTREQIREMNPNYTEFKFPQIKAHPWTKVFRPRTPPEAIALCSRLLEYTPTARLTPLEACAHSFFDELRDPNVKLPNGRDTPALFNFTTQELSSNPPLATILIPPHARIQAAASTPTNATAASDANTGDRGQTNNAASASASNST

The target of the first data set is GSK3β (Homo sapiens, UniProt P49841). As to the kind of experiment: GSK3beta assay (SPA, biotinylated phosphorylated CREB peptide, ATP-P33). Conditions: ranges of pIC50 (−log IC50 (M)); 1 μM ATP, room temperature, one hour; read-out: GSK3b pIC50 (converted). Format: biochemical. Here is the method:
(§1) GSK3beta assays were performed at room temperature in a 100 μl reaction volume of 25 mM Tris (pH 7.4) containing 10 mM MgCl2.6H2O, 1 mM DTI, 0.1 mgiml BSA, 5% glycerol and containing 5.7 ng/μl GSK3β, 5 μM biotinylated phosphorylated CREB peptide, 1 μM ATP, 0.85 μCi/ml ATP-P^33 and a suitable amount of a test compound of formula (I). After one hour, the reaction was terminated by adding 70 μl of Stop mix (0.1 mM ATP, 5 mg/ml streptavidin coated PVT SPA bead pH 11.0). The beads to which the phosphorylated CREB peptide is attached were allowed to settle overnight and the radioactivity of the beads was counted in a microtiterplate scintillation counter and compared with the results obtained in a control experiment (without the presence of a test compound) in order to determine the percentage of GSK3β inhibition. The IC50 value, i.e. the concentration (M) of the test compound at which 50% of GSK3β is inhibited, was calculated from the dose response curve obtained by performing the above-described GSK3β assay in the presence of different amounts of the test compound.
As for `COCc1cccc(-n2nnc3cnc(Nc4ccc(CN5CCC(O)CC5)cc4)nc32)c1` [Compound 102], the IC50 is 1e-08 to 1e-07 M. Same read-out and setting: the same measure for `Brc1cccc(-n2nnc3cnc(Nc4cccc(C5=NCNC5)c4)nc32)c1` [Compound 43]: below 1e-08 M. The same measure, in the same setting: to `Fc1cccc(-n2nnc3cnc(Nc4ccc(-c5nn[nH]n5)cc4)nc32)c1` [Compound 138] belongs below 1e-08 M.

Take `c1ccc(-n2nnc3cnc(Nc4cccc(-c5cnco5)c4)nc32)cc1` [Compound 73]: the IC50 was below 1e-08 M. On the same count and under the same terms, to `CCOC(=O)NCc1cccc(-n2nnc3cnc(Nc4cccc(-c5cnco5)c4)nc32)c1` [Compound 125] belongs below 1e-08 M. Same read-out and setting: to `CN1CCN(CCOc2ccc(Nc3ncc4nnn(-c5cccc(CC#N)c5)c4n3)cc2)CC1` [Compound 93] belongs 1e-08 to 1e-07 M. `OCCc1cccc(-n2nnc3cnc(Nc4ccc(CN5CCC(O)CC5)cc4)nc32)c1` [Compound 79]: the IC50 was below 1e-08 M. Still for that read-out and setting: the same measure for `CC(C)CC(=O)NCc1cccc(-n2nnc3cnc(Nc4cccc(-c5ccnc(N)n5)c4)nc32)c1` [Compound 121]: below 1e-08 M; for `COCc1cccc(-n2nnc3cnc(Nc4cccc(-c5ccnc(N)n5)c4)nc32)c1` [Compound 100]: below 1e-08 M. Still for that read-out and setting: the same measure for `NS(=O)(=O)c1cccc(-n2nnc3cnc(Nc4cccc(-c5cnco5)c4)nc32)c1` [Compound 145]: below 1e-08 M; for `Cn1nnnc1-c1cccc(Nc2ncc3nnn(-c4cccc(F)c4)c3n2)c1` [Compound 28]: below 1e-08 M; for `Nc1nccc(-c2cccc(Nc3ncc4nnn(-c5cccc(F)c5)c4n3)c2)n1` [Compound 33]: below 1e-08 M.

Regarding `Brc1cccc(-n2nnc3cnc(Nc4ccc(-c5cc[nH]n5)cc4)nc32)c1` [Compound 50], the IC50 was 1e-08 to 1e-07 M. Same read-out and setting: the same measure for `Cn1ccnc1-c1cccc(Nc2ncc3nnn(-c4cccc(C(N)=O)c4)c3n2)c1` [Compound 7]: 1e-08 to 1e-07 M. Same read-out and setting: to `Cn1nccc1-c1cccc(Nc2ncc3nnn(-c4cccc(Br)c4)c3n2)c1` [Compound 8] belongs above 1e-07 M; to `Fc1cccc(-n2nnc3cnc(Nc4ccc(OCCN5CCOCC5)cc4)nc32)c1` [Compound 141], 1e-08 to 1e-07 M; to `OCCc1ccc(-n2nnc3cnc(Nc4ccc(N5CCOCC5)cc4)nc32)cc1` [Compound 85], above 1e-07 M.

In the case of `Cn1nnc(-c2ccc(Nc3ncc4nnn(-c5cccc(Br)c5)c4n3)cc2)n1` [Compound 53], the IC50 is 1e-08 to 1e-07 M. Consider `COCCOc1cccc(-n2nnc3cnc(Nc4ccc(N5CCN(C)CC5)cc4)nc32)c1` [Compound 130], for which the IC50 is 1e-08 to 1e-07 M. On the same count and under the same terms, the same measure for `CN1CCN(Cc2ccc(Nc3ncc4nnn(-c5cccc(CC#N)c5)c4n3)cc2)CC1` [Compound 89]: 1e-08 to 1e-07 M; for `CC(C)CC(=O)NCc1cccc(-n2nnc3cnc(Nc4cccc(-c5cnco5)c4)nc32)c1` [Compound 120]: 1e-08 to 1e-07 M; for `Brc1cccc(-n2nnc3cnc(Nc4cccc(-c5cncnc5)c4)nc32)c1` [Compound 47]: below 1e-08 M. Consider `CN1CCN(CCCOc2ccc(Nc3ncc4nnn(-c5cccc(CCO)c5)c4n3)cc2)CC1` [Compound 83], for which the IC50 was below 1e-08 M. Still for that read-out and setting: to `COCCOCc1cccc(-n2nnc3cnc(Nc4ccc(CN5CCN(C)CC5)cc4)nc32)c1` [Compound 109] belongs 1e-08 to 1e-07 M.

The target of a further data set is GSK3alpha (Homo sapiens, UniProt P49840). As to the kind of experiment: GSK3alpha assay (same as the GSK3beta assay, 0.25 ng/μl GSK3alpha). Type of data set: biochemical. Conditions: ranges of pIC50 (−log IC50 (M)), 1 μM ATP, read-out: GSK3a pIC50 (converted). How it is done:
as §1
The GSK3alpha assay was performed in the same way as described above for the GSK3beta assay except for the concentration of GSK3alpha which is 0.25 ng/μl.
Turning to `COCc1cccc(-n2nnc3cnc(Nc4ccc(CN5CCC(O)CC5)cc4)nc32)c1` [Compound 102], the IC50 was 1e-08 to 1e-07 M. Still for that read-out and setting: the same measure for `Brc1cccc(-n2nnc3cnc(Nc4cccc(C5=NCNC5)c4)nc32)c1` [Compound 43]: below 1e-08 M. With `Fc1cccc(-n2nnc3cnc(Nc4ccc(-c5nn[nH]n5)cc4)nc32)c1` [Compound 138], the IC50 is below 1e-08 M. On the same count and under the same terms, to `c1ccc(-n2nnc3cnc(Nc4cccc(-c5cnco5)c4)nc32)cc1` [Compound 73] belongs below 1e-08 M. The same measure, in the same setting: to `CCOC(=O)NCc1cccc(-n2nnc3cnc(Nc4cccc(-c5cnco5)c4)nc32)c1` [Compound 125] belongs below 1e-08 M; to `CN1CCN(CCOc2ccc(Nc3ncc4nnn(-c5cccc(CC#N)c5)c4n3)cc2)CC1` [Compound 93], 1e-08 to 1e-07 M; to `OCCc1cccc(-n2nnc3cnc(Nc4ccc(CN5CCC(O)CC5)cc4)nc32)c1` [Compound 79], below 1e-08 M. For the molecule `CC(C)CC(=O)NCc1cccc(-n2nnc3cnc(Nc4cccc(-c5ccnc(N)n5)c4)nc32)c1` [Compound 121], the IC50 is 1e-08 M. Take `COCc1cccc(-n2nnc3cnc(Nc4cccc(-c5ccnc(N)n5)c4)nc32)c1` [Compound 100]: the IC50 is below 1e-08 M.

As for `NS(=O)(=O)c1cccc(-n2nnc3cnc(Nc4cccc(-c5cnco5)c4)nc32)c1` [Compound 145], the IC50 is below 1e-08 M. Regarding `Cn1nnnc1-c1cccc(Nc2ncc3nnn(-c4cccc(F)c4)c3n2)c1` [Compound 28], the IC50 was below 1e-08 M. Regarding `Nc1nccc(-c2cccc(Nc3ncc4nnn(-c5cccc(F)c5)c4n3)c2)n1` [Compound 33], the IC50 was below 1e-08 M. In the case of `Brc1cccc(-n2nnc3cnc(Nc4ccc(-c5cc[nH]n5)cc4)nc32)c1` [Compound 50], the IC50 is below 1e-08 M.

Take `Cn1ccnc1-c1cccc(Nc2ncc3nnn(-c4cccc(C(N)=O)c4)c3n2)c1` [Compound 7]: the IC50 is below 1e-08 M. Still for that read-out and setting: the same measure for `Cn1nccc1-c1cccc(Nc2ncc3nnn(-c4cccc(Br)c4)c3n2)c1` [Compound 8]: below 1e-08 M; for `Fc1cccc(-n2nnc3cnc(Nc4ccc(OCCN5CCOCC5)cc4)nc32)c1` [Compound 141]: below 1e-08 M; for `OCCc1ccc(-n2nnc3cnc(Nc4ccc(N5CCOCC5)cc4)nc32)cc1` [Compound 85]: below 1e-08 M. Consider `Cn1nnc(-c2ccc(Nc3ncc4nnn(-c5cccc(Br)c5)c4n3)cc2)n1` [Compound 53], for which the IC50 was below 1e-08 M. On the same count and under the same terms, to `COCCOc1cccc(-n2nnc3cnc(Nc4ccc(N5CCN(C)CC5)cc4)nc32)c1` [Compound 130] belongs 1e-08 to 1e-07 M; to `CN1CCN(Cc2ccc(Nc3ncc4nnn(-c5cccc(CC#N)c5)c4n3)cc2)CC1` [Compound 89], below 1e-08 M; to `CC(C)CC(=O)NCc1cccc(-n2nnc3cnc(Nc4cccc(-c5cnco5)c4)nc32)c1` [Compound 120], 1e-08 to 1e-07 M. On the same count and under the same terms, to `Brc1cccc(-n2nnc3cnc(Nc4cccc(-c5cncnc5)c4)nc32)c1` [Compound 47] belongs below 1e-08 M; to `CN1CCN(CCCOc2ccc(Nc3ncc4nnn(-c5cccc(CCO)c5)c4n3)cc2)CC1` [Compound 83], below 1e-08 M; to `COCCOCc1cccc(-n2nnc3cnc(Nc4ccc(CN5CCN(C)CC5)cc4)nc32)c1` [Compound 109], 1e-08 to 1e-07 M.

Tested on in the next data set: not given
Experiment: not given
Settings: not given
On to `Brc1cccc(-n2nnc3cnc(Nc4cccc(C5=NCNC5)c4)nc32)c1` (as salt: HCl) [Compound 43], for which the melting point was above 260 °C. The same measure, in the same setting: to `NCc1cccc(-n2nnc3cnc(Nc4cccc(-c5cnco5)c4)nc32)c1` (as salt: HCl) [Compound 114] belongs above 250 °C.
